Measured values reported in ChEMBL document CHEMBL2203270, “POMA analyses as new efficient bioinformatics' platform to predict and optimise bioactivity of synthesized 3a,4-dihydro-3H-indeno[1,2-c]pyrazole-2-carboxamide/carbothioamide analogues” (Bioorg Med Chem Lett, 2012).
Values after ≈ are worked out from the molar mass of the structure shown. Active and inactive are the calls of the source. The calls are words filed in the database; no cut-off is given here.

Columns and labels:
[1] = test system: Human immunodeficiency virus 1; test: Antiviral activity against HIV-1 3B infected in MT4 cells assessed as protection against virus-induced cytopathicity relative to control; type: functional; conditions: Human immunodeficiency virus 1, 3B
[2] = test system: Staphylococcus aureus; test: Antimicrobial activity against Staphylococcus aureus NCIM 2079 by broth dilution technique; type: functional
[3] = Cytotoxicity against mock-infected human MT4 cells assessed as decrease in cell viability by MTT assay; type: cell-based
[4] = test system: Human immunodeficiency virus 2; test: Antiviral activity against HIV-2 ROD infected in MT4 cells assessed as inhibition of virus-induced cytopathicity; type: functional, organism-based; conditions: Human immunodeficiency virus 2, ISOLATE ROD
[5] = test system: Escherichia coli; test: Antimicrobial activity against Escherichia coli NCIM 5051 by broth dilution technique; type: functional
[6] = test system: Human immunodeficiency virus 2; test: Antiviral activity against HIV-2 ROD infected in MT4 cells assessed as protection against virus-induced cytopathicity relative to control; type: functional; conditions: Human immunodeficiency virus 2, ISOLATE ROD
[7] = test system: Aspergillus niger; test: Antimicrobial activity against Aspergillus niger NCIM 1196 by broth dilution technique; type: functional
[8] = test system: Pseudomonas aeruginosa; test: Antimicrobial activity against Pseudomonas aeruginosa ATCC 10145 by broth dilution technique; type: functional
[9] = test system: Human immunodeficiency virus 1; test: Antiviral activity against HIV-1 3B infected in MT4 cells assessed as inhibition of virus-induced cytopathicity; type: functional, organism-based; conditions: Human immunodeficiency virus 1, 3B
[10] = test system: Candida albicans; test: Antimicrobial activity against Candida albicans NCIM 3471 by broth dilution technique; type: functional
[11] = test system: Bacillus subtilis; test: Antimicrobial activity against Bacillus subtilis NCIM 2439 by broth dilution technique; type: functional
[12] = test system: Pseudomonas aeruginosa; test: microbe, parasite or virus in culture; conditions: ATCC 10145
[13] = test system: Bacillus subtilis; test: Antimicrobial activity against Bacillus subtilis NCIM 2439 by disc-diffusion method; type: functional
[14] = test system: Escherichia coli; test: microbe, parasite or virus in culture; conditions: NCIM 5051
Description: Antimicrobial activity against Escherichia coli NCIM 5051 by disc-diffusion method

[15] = test system: Staphylococcus aureus; test: microbe, parasite or virus in culture; conditions: NCIM 2079
Description: Antimicrobial activity against Staphylococcus aureus NCIM 2079 by disc-diffusion method

[16] = test system: Mus musculus; test: Anticonvulsant activity in mouse assessed as protection against clonic seizure at 100 mg/kg, ip measured at 2 hr; type: functional, organism-based; set-up: dose 100 mg/kg
[17] = test system: Mus musculus; test: Neurotoxicity in mouse assessed as minimal motor impairment at 100 mg/kg, ip measured at 4 hr by rotarod test; type: toxicity, organism-based; set-up: dose 100 mg/kg, route intraperitoneal; conditions: in vivo
[18] = test system: Mus musculus; test: Anticonvulsant activity in mouse assessed as protection against clonic seizure at 100 mg/kg, ip measured at 4 hr; type: functional, organism-based; set-up: dose 100 mg/kg
[19] = test system: Mus musculus; test: Neurotoxicity in mouse assessed as minimal motor impairment at 100 mg/kg, ip measured at 0.25 hr by rotarod test; type: toxicity, organism-based; set-up: dose 100 mg/kg, route intraperitoneal; conditions: in vivo
[20] = test system: Mus musculus; test: Neurotoxicity in mouse assessed as minimal motor impairment at 100 mg/kg, ip measured at 0.5 hr by rotarod test; type: toxicity, organism-based; set-up: dose 100 mg/kg, route intraperitoneal; conditions: in vivo
[21] = test system: Mus musculus; test: Neurotoxicity in mouse assessed as minimal motor impairment at 100 mg/kg, ip measured at 1 hr by rotarod test; type: toxicity, organism-based; set-up: dose 100 mg/kg, route intraperitoneal; conditions: in vivo
[22] = test system: Mus musculus; test: Anticonvulsant activity in mouse assessed as protection against clonic seizure at 100 mg/kg, ip measured at 0.25 hr; type: functional
[23] = test system: Mus musculus; test: Neurotoxicity in mouse assessed as minimal motor impairment at 100 mg/kg, ip measured at 2 hr by rotarod test; type: toxicity, organism-based; set-up: dose 100 mg/kg, route intraperitoneal; conditions: in vivo
[24] = test system: Mus musculus; test: Anticonvulsant activity in mouse assessed as protection against clonic seizure at 100 mg/kg, ip measured at 0.5 hr; type: functional
[25] = test system: Mus musculus; test: Anticonvulsant activity in mouse assessed as protection against clonic seizure at 100 mg/kg, ip measured at 1 hr; type: functional

For `COc1cc2c(cc1OC)C1=NN(C(N)=O)C(c3ccncc3)C1C2` (stereo not given), the Emax [1] was 4%, the MBC [2] was > 512 µg/mL and the MIC [2] was 16 µg/mL (≈ 47.3 µM). The CC50 [3] was 40.4 µM, the IC50 [4] was > 40.4 µM and the MBC [5] was > 512 µg/mL. The MIC [5] was 8 µg/mL (≈ 23.6 µM), the Emax [6] was 5% and the MFC [7] was > 512 µg/mL. For the same compound, the MIC [7] was 256 µg/mL (≈ 757 µM), the MBC [8] was > 512 µg/mL and the MIC [8] was 16 µg/mL (≈ 47.3 µM). For the same compound, the IC50 [9] was > 40.4 µM, the MFC [10] was > 512 µg/mL and the MIC [10] was 256 µg/mL (≈ 757 µM). The MBC [11] was > 512 µg/mL and the MIC [11] was 16 µg/mL (≈ 47.3 µM).

With `COc1ccc(C2C3Cc4cc(OC)c(OC)cc4C3=NN2C(N)=O)cc1OC` (stereo not given) the Emax [1] was 6%, the MBC [2] was > 512 µg/mL and the MIC [2] was 128 µg/mL (≈ 322 µM). For the same compound, the CC50 [3] was 151 µM, the IC50 [4] was > 151 µM and the MBC [5] was > 512 µg/mL. The MIC [5] was 64 µg/mL (≈ 161 µM), the Emax [6] was 30% and the MFC [7] was 512 µg/mL (≈ 1290 µM). For the same compound, the MIC [7] was 32 µg/mL (≈ 80.5 µM), the MBC [8] was > 512 µg/mL and the MIC [8] was 128 µg/mL (≈ 322 µM). For the same compound, the IC50 [9] was > 151 µM, the MFC [10] was 512 µg/mL (≈ 1290 µM) and the MIC [10] was 32 µg/mL (≈ 80.5 µM). For the same compound, the MBC [11] was > 512 µg/mL and the MIC [11] was 128 µg/mL (≈ 322 µM).

Compound `O=C(O)c1cn(C2CC2)c2cc(N3CCNCC3)c(F)cc2c1=O` [CIPROFLOXACIN] has an MBC [12] of 8 µg/mL (≈ 24.1 µM), an MIC [12] of 4 µg/mL (≈ 12.1 µM) and an MBC [13] of 8 µg/mL (≈ 24.1 µM). It also gave an MIC [13] of 4 µg/mL (≈ 12.1 µM), an MBC [14] of 4 µg/mL (≈ 12.1 µM) and an MBC [15] of 8 µg/mL (≈ 24.1 µM). It also gave an MIC [15] of 4 µg/mL (≈ 12.1 µM).

In the case of `COc1ccc(C2C3Cc4cc(OC)c(OC)cc4C3=NN2C(=O)Nc2ccc(F)c(Cl)c2)cc1OC` (stereo not given), the Emax [1] is reported as 12%, the Activity [16] is reported as “inactive” and the Activity [17] is reported as “Non-toxic”. For the same compound, the CC50 [3] was 223 µM, the Activity [18] was “inactive” and the Activity [19] was “Non-toxic”. The IC50 [4] was > 223 µM, the Activity [20] was “Non-toxic” and the Activity [21] was “Non-toxic”. The Emax [6] was 38%, the Activity [22] was “inactive” and the Activity [23] was “Non-toxic”. The IC50 [9] was > 223 µM, the Activity ([24]; route intraperitoneal) was 50% and the Activity ([25]; route intraperitoneal) was 50%.

For `COc1cc2c(cc1OC)C1=NN(C(=O)Nc3ccc(F)c(Cl)c3)C(c3ccc(F)cc3)C1C2` (stereo not given), the Emax [1] was 2%, the Activity [16] was “inactive” and the Activity [17] was “Non-toxic”. For the same compound, the CC50 [3] was 179 µM, the Activity [18] was “inactive” and the Activity [19] was “Non-toxic”. The IC50 [4] was > 179 µM, the Activity [20] was “Non-toxic” and the Activity [21] was “Non-toxic”. The Emax [6] was 7%, the Activity [22] was “inactive” and the Activity [23] was “Non-toxic”. For the same compound, the IC50 [9] was > 179 µM, the Activity [24] was “inactive” and the Activity [25] was “inactive”.

Work on `COc1cc2c(cc1OC)C1=NN(C(N)=S)C(c3ccc(F)cc3)C1C2` (stereo not given) yielded an Emax [1] of 5%, an MBC [2] of 8 µg/mL (≈ 21.5 µM) and an MIC [2] of 4 µg/mL (≈ 10.8 µM). For the same compound, the CC50 [3] was 39.9 µM, the IC50 [4] was > 39.9 µM and the MBC [5] was 8 µg/mL (≈ 21.5 µM). For the same compound, the MIC [5] was 4 µg/mL (≈ 10.8 µM), the Emax [6] was 9% and the MFC [7] was > 512 µg/mL. It also gave an MIC [7] of 64 µg/mL (≈ 172 µM), an MBC [8] of 8 µg/mL (≈ 21.5 µM) and an MIC [8] of 4 µg/mL (≈ 10.8 µM). The IC50 [9] was > 39.9 µM, the MFC [10] was > 512 µg/mL and the MIC [10] was 32 µg/mL (≈ 86.2 µM). It also gave an MBC [11] of 8 µg/mL (≈ 21.5 µM) and an MIC [11] of 4 µg/mL (≈ 10.8 µM).

In the case of `COc1ccc(C2C3Cc4cc(OC)c(OC)cc4C3=NN2C(N)=O)cc1` (stereo not given), the Emax [1] is reported as 3%, the MBC [2] is reported as > 512 µg/mL and the MIC [2] is reported as 64 µg/mL (≈ 174 µM). The CC50 [3] was 150 µM, the IC50 [4] was > 150 µM and the MBC [5] was > 512 µg/mL. For the same compound, the MIC [5] was 32 µg/mL (≈ 87.1 µM), the Emax [6] was 6% and the MFC [7] was 8 µg/mL (≈ 21.8 µM). For the same compound, the MIC [7] was 4 µg/mL (≈ 10.9 µM), the MBC [8] was > 512 µg/mL and the MIC [8] was 64 µg/mL (≈ 174 µM). For the same compound, the IC50 [9] was > 150 µM, the MFC [10] was 2 µg/mL (≈ 5.44 µM) and the MIC [10] was 2 µg/mL (≈ 5.44 µM). For the same compound, the MBC [11] was > 512 µg/mL and the MIC [11] was 128 µg/mL (≈ 348 µM).

In the case of `COc1cc2c(cc1OC)C1=NN(C(=O)Nc3ccc(F)c(Cl)c3)C(c3ccccc3)C1C2` (stereo not given), the Emax [1] is reported as 7%, the Activity [16] is reported as “inactive” and the Activity [17] is reported as “Non-toxic”. For the same compound, the CC50 [3] was 35.8 µM, the Activity [18] was “inactive” and the Activity [19] was “Non-toxic”. The IC50 [4] was > 35.8 µM, the Activity [20] was “Non-toxic” and the Activity [21] was “Non-toxic”. For the same compound, the Emax [6] was 10%, the Activity ([22]; route intraperitoneal) was 50% and the Activity [23] was “Non-toxic”. The IC50 [9] was > 35.8 µM, the Activity [24] was “inactive” and the Activity [25] was “inactive”.
